Numbering of substitutions follows the chain as printed.
What was measured:
[1] = test system: rats; design: method as in PMID 26349500; settings: cited from earlier work
[2] = target: T1, GPR139 E105A3x29 (Homo sapiens, UniProt Q6DWJ6, E105A); assay: Fluo-4 Ca2+-assay, GPR139 mutant E105A; format: cell-based
T1 construct: mGluR5 signal peptide (N); expressed in transfected cells; host or cells: HEK293
T1 sequence (Q6DWJ6 2-353 E105A limits assumed): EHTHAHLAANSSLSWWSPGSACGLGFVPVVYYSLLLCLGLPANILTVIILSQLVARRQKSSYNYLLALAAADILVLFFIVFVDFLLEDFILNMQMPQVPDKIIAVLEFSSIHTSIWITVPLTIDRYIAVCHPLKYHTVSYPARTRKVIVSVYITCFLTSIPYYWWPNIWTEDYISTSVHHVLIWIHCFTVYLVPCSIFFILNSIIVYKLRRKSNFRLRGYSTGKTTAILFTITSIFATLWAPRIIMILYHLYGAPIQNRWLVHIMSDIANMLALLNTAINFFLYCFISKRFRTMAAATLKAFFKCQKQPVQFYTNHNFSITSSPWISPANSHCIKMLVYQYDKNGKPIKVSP
Excerpt: (§1) To study the influence of specific amino acids in the predicted binding pocket on receptor function, the desired mutations were introduced into an N-terminally c-myc-tagged wild type human GPR139 (NM_001002911.3) in the pEGFP-N1 vector (BD Biosciences)[32], [33]. As previously described, these plasmids carry the signal peptide of mGluR5 to promote cell surface expression followed by a c-myc epitope to enable detection of total and surface expression by ELISA, followed by an engineered MluI and NotI site for easy insertion of the receptor of interest. Furthermore, the start-codon in the GPR139 sequence was deleted to ensure c-myc-tagging. […]
(§2) The Ca^2+ measurements were preformed using the Fluo-4 NW Calcium Assay Kit (Invitrogen, Molecular Probes, F36206) as previously described. […] Intracellular calcium changes were recorded as indicated on either a NOVOstar (BMG Labtech) at 37 °C with an excitation filter of 485 nm and an emission filters 520 nm or a FlexStation 3 Benchtop Multi-Mode Microplate Reader (Molecular Devices) at 37 °C with an excitation wavelength of 485 nm and emission of 525 nm.
(§3) All pharmacological data have been analyzed by using Prism 6.0 (GraphPad Software Inc., San Diego). […] Changes in potency (pEC50) and span of myc-GPR139(WT) in comparison to untagged GPR139(WT) was statistically analyzed with a paired t-test and significance was accepted at p < 0.05. […]

[3] = target: T2, GPR139 H113A3x37 (Homo sapiens, UniProt Q6DWJ6, H113A); assay: Fluo-4 Ca2+-assay, GPR139 mutant H113A; format: cell-based
T2 construct: mGluR5 signal peptide (N); expressed in transfected cells; host or cells: HEK293
T2 sequence (Q6DWJ6 2-353 H113A limits assumed): T1 sequence (Q6DWJ6 2-353 E105A limits assumed) with A104E, H112A
Excerpt: as §1, §2, §3

For C[C@@H](NC(=O)CNC(=O)c1cccc(Cl)c1)c1ccccc1 (racemic) [Compound 7c], the spontaneous locomotion activity [1] is given as “decreased spontaneous locomotion activity”.

COc1cc(OC)cc(C(=O)NNC(=O)Nc2cccc3ccccc23)c1 [Compound 1a] gave an EC50 ([2]; E105A mutant) of 129 nM, an Emax ([2]; E105A, normalized to buffer (0%) and 8 µM 1a (100%)) of 288 ± 27% and an EC50 ([3]; H113A mutant) of 851 nM. It also gave an Emax ([3]; H113A, normalized to buffer (0%) and 8 µM 1a (100%)) of 97 ± 9%.
